Experimental data from patent EP4417602A1, “SUBSTITUTED PYRAZOLE CARBOXAMIDES, SALTS THEREOF AND THEIR USE AS HERBICIDALLY ACTIVE SUBSTANCES” (Bayer AG, priority 2023, dated 2024).

How the values were obtained:
ALOMY = assay: A. Herbicidal pre-emergence action on harmful plants (Tables A); type: in vivo, Alopecurus myosuroides
Text: (§1) Seeds of mono- and dicotyledonous weed plants were sown in plastic pots (double sowings with one species of mono- and one species of dicotyledonous weed plants per pot), in sandy loam, and covered with soil. The compounds according to the invention, formulated in the form of wettable powders (WP) or as emulsifiable concentrates (EC), were applied to the surface of the covering soil as aqueous suspension or emulsion, with the addition of 0.5% of an additive, at an application rate of 6001 of water per hectare (converted). Following treatment, the pots were placed in a greenhouse and kept under optimum growth conditions for the test plants. The visual grading of the damage to the test plants was carried out after ca. 3 weeks in comparison to untreated controls (herbicidal effect in percent (%): 100% effect = plants have died off, 0% effect = as control plants). Tables A1 to A12, below, show the effects of selected compounds of the general formula (I) according to table 1 on various harmful plants and an application rate corresponding to 1280 g/ha or below obtained by the experimental procedure mentioned above. Table A1: pre-emergence activity at 1280g/ha against ABUTH in %

VERPE = assay: B. Herbicidal post-emergence action on harmful plants (Tables B); type: in vivo, Veronica persica; conditions: application rate 1280 g/ha; Table B11a
Experimental: (§2) Seeds of mono- and dicotyledonous weed plants were placed in plastic pots in sandy loam soil (doubly sown with in each case one species of mono- or dicotyledonous weed plants per pot), covered with soil and cultivated in a greenhouse under controlled growth conditions. 2 to 3 weeks after sowing, the test plants were treated at the one-leaf stage. The compounds of the invention, formulated in the form of wettable powders (WP) or as emulsion concentrates (EC), were applied onto the green parts of the plants as aqueous suspension or emulsion with addition of 0.5% additive at a water application rate of 600 liters per hectare (converted). After the test plants had been kept in the greenhouse under optimum growth conditions for about 3 weeks, the activity of the preparations was rated visually in comparison to untreated controls. For example, 100% activity = the plants have died, 0% activity = like control plants. Tables B1 to B12, below, show the effects of selected compounds of the general formula (I) according to table 1 on various harmful plants and an application rate corresponding to 1280 g/ha or below obtained by the experimental procedure mentioned above. Table B1a: post-emergence activity at 1280g/ha against ABUTH in %

SETVI = assay: A. Herbicidal pre-emergence action on harmful plants (Tables A); type: in vivo, Setaria viridis; conditions: visual grading after ca. 3 weeks vs untreated controls, 100% = plants have died off, 0% = as control plants
Text: as §1

POAAN [1] = assay: as above; type: in vivo, Poa annua
Text: as §1

LOLRI = assay: as above; type: in vivo, Lolium rigidum; conditions: visual grading after ca. 3 weeks vs untreated controls, 100% = plants have died off, 0% = as control plants
Text: as §1

ECHCG [2] = assay: as above; type: in vivo, Echinochloa crus-galli; conditions: visual grading after ca. 3 weeks vs untreated controls, 100% = plants have died off, 0% = as control plants
Text: as §1

POAAN [3] = assay: B. Herbicidal post-emergence action on harmful plants (Tables B); type: in vivo, Poa annua
Experimental: as §2

ECHCG [4] = assay: as above; type: in vivo, Echinochloa crus-galli; conditions: application rate 1280 g/ha; Table B2a
Experimental: as §2

DIGSA = assay: A. Herbicidal pre-emergence action on harmful plants (Tables A); type: in vivo, Digitaria sanguinalis
Text: as §1

MATIN [5] = assay: as above; type: in vivo, Matricaria inodora
Text: as §1

STEME = assay: as above; type: in vivo, Stellaria media; conditions: visual grading after ca. 3 weeks vs untreated controls, 100% = plants have died off, 0% = as control plants
Text: as §1

MATIN [6] = assay: B. Herbicidal post-emergence action on harmful plants (Tables B); type: in vivo, Matricaria inodora; conditions: application rate 1280 g/ha; Table B4a
Experimental: as §2

AMARE = assay: A. Herbicidal pre-emergence action on harmful plants (Tables A); type: in vivo, Amaranthus retroflexus; conditions: application rate 1280 g/ha; visual grading after ca. 3 weeks vs untreated controls; 100% = plants have died off, 0% = as control plants
Text: as §1

[7] = application rate 1280 g/ha, Table A9a
[8] = application rate 320 g/ha, Table A7b
[9] = application rate 1280 g/ha, visual grading after ca. 3 weeks vs untreated controls, 100% = plants have died off, 0% = as control plants
[10] = application rate 320 g/ha, Table B7b
[11] = application rate 1280 g/ha, Table B7a
[12] = application rate 80 g/ha, Table A7c
[13] = application rate 320 g/ha, Table A12b
[14] = application rate 1280 g/ha, Table A12a
[15] = application rate 320 g/ha, Table A9b

SMILES	pre-emergence activity against ALOMY (ALOMY; [7])	post-emergence activity against VERPE (VERPE)	pre-emergence activity against SETVI (SETVI; application rate 1280 g/ha)	pre-emergence activity against POAAN (POAAN [1]; [8])	pre-emergence activity against POAAN (POAAN [1]; [9])	pre-emergence activity against LOLRI (LOLRI; application rate 320 g/ha)	pre-emergence activity against LOLRI (LOLRI; application rate 1280 g/ha)	pre-emergence activity against ECHCG (ECHCG [2]; application rate 320 g/ha)	pre-emergence activity against ECHCG (ECHCG [2]; application rate 1280 g/ha)	post-emergence activity against POAAN (POAAN [3]; [11])	pre-emergence activity against POAAN (POAAN [1]; [12])	pre-emergence activity against DIGSA (DIGSA; [13])	pre-emergence activity against DIGSA (DIGSA; [14])	pre-emergence activity against MATIN (MATIN [5]; [9])	pre-emergence activity against STEME (STEME; application rate 1280 g/ha)	pre-emergence activity against SETVI (SETVI; application rate 320 g/ha)	pre-emergence activity against AMARE (AMARE)	also measured
COCc1nn(C)cc1C(=O)N1CCCC1Cc1ccccc1OC (racemic) [Example I-014]	90%	90%	90%	100%	100%	90%	100%	90%	100%									
COCc1nn(C)cc1C(=O)N1CCCC1Cc1ncccc1F (racemic) [Example I-015]	90%	90%	90%	100%	100%		100%	90%	100%	90%	100%							post-emergence activity against POAAN (POAAN [3]; [10]): 90%
COCc1nn(C)cc1C(=O)N1CCCC1Cc1ccc(Cl)cc1Cl (racemic) [Example I-016]			90%	100%	100%			90%	100%	90%								post-emergence activity against ECHCG (ECHCG [4]): 90%
COCc1nn(C(=O)NC2CC2)cc1C(=O)N1CCCC1Cc1ccccc1F (racemic) [Example I-036]	90%	90%	90%	90%	100%	90%	90%	90%	100%		90%	90%	100%	90%	90%			pre-emergence activity against STEME (STEME; application rate 320 g/ha): 90%
COCc1nn(C)cc1C(=O)N1CCCC1Cc1c(F)cccc1F (racemic) [Example I-081]	100%		100%	100%	100%	100%	100%	100%	100%	100%	100%	100%	100%	90%	90%	100%	90%	pre-emergence activity against ALOMY (ALOMY; [15]): 90%; post-emergence activity against POAAN (POAAN [3]; application rate 80 g/ha, Table B7c): 90%; post-emergence activity against POAAN (POAAN [3]; [10]): 90%; pre-emergence activity against DIGSA (DIGSA; application rate 80 g/ha, Table A12c): 90%; pre-emergence activity against SETVI (SETVI; application rate 80 g/ha): 90%; pre-emergence activity against MATIN (MATIN [5]; application rate 320 g/ha, visual grading after ca. 3 weeks vs untreated controls, 100% = plants have died off, 0% = as control plants): 90%; post-emergence activity against MATIN (MATIN [6]): 90%; pre-emergence activity against LOLRI (LOLRI; application rate 80 g/ha): 100%; pre-emergence activity against ECHCG (ECHCG [2]; application rate 80 g/ha): 90%
COCc1c(C(=O)N2CCCC2Cc2ccc(F)cc2F)cnn1C (racemic) [Example I-158]	100%		90%	100%	100%		90%		100%	100%			100%	90%	90%			pre-emergence activity against ALOMY (ALOMY; [15]): 100%; post-emergence activity against ECHCG (ECHCG [4]): 90%
COCc1c(C(=O)N2CCCC2Cc2ccc(Cl)cc2Cl)cnn1C (racemic) [Example I-166]		90%	90%	90%	100%		100%		90%	90%	90%				90%		90%	post-emergence activity against ECHCG (ECHCG [4]): 90%; post-emergence activity against MATIN (MATIN [6]): 90%
COCc1nn(C)c(Cl)c1C(=O)N1CCCC1Cc1ccccc1F (single isomer, unassigned) [Example I-058]			100%		100%		90%	90%	100%	90%		90%	100%		90%	90%	100%	pre-emergence activity against MATIN (MATIN [5]; pre-emergence, 1280 g/ha, 504 h): 90%
COCc1c(C(=O)N2CCCC2Cc2ccccc2C)cnn1C (single isomer, unassigned) [Example I-139]			100%	100%	100%		90%		100%		100%	90%	100%				90%	
CCOCc1c(C(=O)N2CCCC2Cc2ccccc2F)cnn1C (single isomer, unassigned) [Example I-142]	90%		100%	100%	100%	90%	100%	90%	100%	90%	90%	90%	100%	90%	90%	90%	90%	pre-emergence activity against STEME (STEME; application rate 320 g/ha): 90%; pre-emergence activity against ECHCG (ECHCG [2]; application rate 80 g/ha): 90%
COCc1c(C(=O)N2CCCC2Cc2cc(F)ccc2F)cnn1C (single isomer, unassigned) [Example I-188]	90%		100%	100%	100%		100%	90%	100%	90%	90%	90%	100%	90%	90%	100%		pre-emergence activity against SETVI (SETVI; application rate 80 g/ha): 90%
